The source of these data is US10987359B2, “Oxadiazepinone derivatives and methods of treating hepatitis B infections” (priority 2016, dated 2021).

The assay deals with HBV. Put plainly: HBV replication inhibition assay (BDNA assay) in HepG2.2.15 cells. The assay is classed as cell-based. Conditions: HepG2.2.15 cells, read-out: DNA EC50. The gist of the method:
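HepG2.2.15 cells with stably integrated HBV were treated with serially diluted compounds at 0.5% DMSO for 6 days, with medium and compound refreshed at day 3. Encapsidated HBV DNA from DNase-treated supernatant was quantified by branched DNA assay. EC50 came from % inhibition versus DMSO, fitted non-linearly.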

Where [1] appears, read: Hepatitis B virus, HepG2.2.15, HBV replication assay (BDNA assay).
Setting [2] is: HBV replication assay (BDNA assay).

Read-outs that look alike come from different tables or passages of the source.

Broadly, the EC50 is the midpoint of the concentration-response curve. Take `C[C@@H]1Cc2nn3c(c2CN1C(=O)Nc1cc(Cl)c(F)cc1F)C(=O)N(C)OC(COCC(F)F)C3` (stereo in doubt) [Compound 127_D2, (4R*,9R)—N-(5-chloro-2,4-difluorophenyl)-4-((2,2-difluoroethoxy)methyl)-2,9-dimethyl-1-oxo-1,4,5,8,9,11-hexahydropyrido[4′,3′:3,4]pyrazolo[5,1-d][1,2,5]oxadiazepine-10(2H)-carboxamide]: the EC50 under setting [1] lay in the range of 1 to 100 nM. Take `C[C@@H]1Cc2nn3c(c2CN1C(=O)Nc1ccc(F)c(Cl)c1F)C(=O)N(C)OC(C(=O)N(C)CC(F)F)C3` (stereo in doubt) [Compound 152_D2, (4R*,9R)—N10-(3-chloro-2,4-difluorophenyl)-N4-(2,2-difluoroethyl)-N4,2,9-trimethyl-1-oxo-1,4,5,8,9,11-hexahydropyrido[4′,3′:3,4]pyrazolo[5,1-d][1,2,5]oxadiazepine-4,10(2H)-dicarboxamide]: the EC50 under setting [1] lay in the range of 1 to 100 nM. Take `C[C@@H]1Cc2nn3c(c2CN1C(=O)Nc1ccc(F)c(C#N)c1F)C(=O)N(C)OC(C(=O)N(C)CC(F)F)C3` (stereo in doubt) [Compound 153_D1, (4S*,9R)—N10-(3-cyano-2,4-difluorophenyl)-N4-(2,2-difluoroethyl)-N4,2,9-trimethyl-1-oxo-1,4,5,8,9,11-hexahydropyrido[4′,3′:3,4]pyrazolo[5,1-d][1,2,5]oxadiazepine-4,10(2H)-dicarboxamide]: the EC50 under setting [2] lay within 100 to 500 nM. On to `C[C@@H]1Cc2nn3c(c2CN1C(=O)Nc1ccc(F)c(C#N)c1F)C(=O)N(C)OC(C(=O)N(C)CC(F)F)C3` (stereo in doubt) [Compound 153_D2, (4R*,9R)—N10-(3-cyano-2,4-difluorophenyl)-N4-(2,2-difluoroethyl)-N4,2,9-trimethyl-1-oxo-1,4,5,8,9,11-hexahydropyrido[4′,3′:3,4]pyrazolo[5,1-d][1,2,5]oxadiazepine-4,10(2H)-dicarboxamide], for which, under setting [2], the EC50 lay in the range of 1 to 100 nM. As for `C[C@@H]1Cc2nn3c(c2CN1C(=O)Nc1cc(Cl)c(F)cc1F)C(=O)N(C)OC(C(=O)N(C)CC(F)F)C3` (stereo in doubt) [Compound 154_D1, (4S*,9R)—N10-(5-chloro-2,4-difluorophenyl)-N4-(2,2-difluoroethyl)-N4,2,9-trimethyl-1-oxo-1,4,5,8,9,11-hexahydropyrido[4′,3′:3,4]pyrazolo[5,1-d][1,2,5]oxadiazepine-4,10(2H)-dicarboxamide], the EC50 under setting [2] is 500 to 1000 nM. The same measure, in the same setting: the result for `C[C@@H]1Cc2nn3c(c2CN1C(=O)Nc1cc(Cl)c(F)cc1F)C(=O)N(C)OC(C(=O)N(C)CC(F)F)C3` (stereo in doubt) [Compound 154_D2, (4R*,9R)—N10-(5-chloro-2,4-difluorophenyl)-N4-(2,2-difluoroethyl)-N4,2,9-trimethyl-1-oxo-1,4,5,8,9,11-hexahydropyrido[4′,3′:3,4]pyrazolo[5,1-d][1,2,5]oxadiazepine-4,10(2H)-dicarboxamide] reads 1 to 100 nM; that for `C[C@@H]1Cc2nn3c(c2CN1C(=O)Nc1ccc(F)c(C#N)c1)C(=O)N(C)OC(C(=O)N(C)CC(F)F)C3` (stereo in doubt) [Compound 155_D1, (4S*,9R)—N10-(3-cyano-4-fluorophenyl)-N4-(2,2-difluoroethyl)-N4,2,9-trimethyl-1-oxo-1,4,5,8,9,11-hexahydropyrido[4′,3′:3,4]pyrazolo[5,1-d][1,2,5]oxadiazepine-4,10(2H)-dicarboxamide], 500 to 1000 nM; that for `C[C@@H]1Cc2nn3c(c2CN1C(=O)Nc1ccc(F)c(C#N)c1)C(=O)N(C)OC(C(=O)N(C)CC(F)F)C3` (stereo in doubt) [Compound 155_D2, (4R*,9R)—N10-(3-cyano-4-fluorophenyl)-N4-(2,2-difluoroethyl)-N4,2,9-trimethyl-1-oxo-1,4,5,8,9,11-hexahydropyrido[4′,3′:3,4]pyrazolo[5,1-d][1,2,5]oxadiazepine-4,10(2H)-dicarboxamide], 1 to 100 nM. As to `CNC(=O)C1Cn2nc3c(c2C(=O)N(C)O1)CN(C(=O)Nc1ccc(F)c(C#N)c1F)[C@H](C)C3` (stereo in doubt) [Compound 156_D2, (4R*,9R)—N10-(3-cyano-2,4-difluorophenyl)-N4,2,9-trimethyl-1-oxo-1,4,5,8,9,11-hexahydropyrido[4′,3′:3,4]pyrazolo[5,1-d][1,2,5]oxadiazepine-4,10(2H)-dicarboxamide], the EC50 under setting [1] lay in the range of 1 to 100 nM. On the same count and under the same terms, the result for `C[C@@H]1Cc2nn3c(c2CN1C(=O)Nc1ccc(F)c(C#N)c1)C(=O)N(C)OC(CNCC(F)F)C3` (stereo in doubt) [Compound 183_D1, (4S*,9R)—N-(3-cyano-4-fluorophenyl)-4-(((2,2-difluoroethyl)amino)methyl)-2,9-dimethyl-1-oxo-1,4,5,8,9,11-hexahydropyrido[4′,3′:3,4]pyrazolo[5,1-d][1,2,5]oxadiazepine-10(2H)-carboxamide] reads 1 to 100 nM. Consider `C[C@@H]1Cc2nn3c(c2CN1C(=O)Nc1ccc(F)c(C#N)c1)C(=O)N(C)OC(CNCC(F)F)C3` (stereo in doubt) [Compound 183_D2, (4R*,9R)—N-(3-cyano-4-fluorophenyl)-4-(((2,2-difluoroethyl)amino)methyl)-2,9-dimethyl-1-oxo-1,4,5,8,9,11-hexahydropyrido[4′,3′:3,4]pyrazolo[5,1-d][1,2,5]oxadiazepine-10(2H)-carboxamide], for which, under setting [2], the EC50 fell in the range of 1 to 100 nM. Take `C[C@@H]1Cc2nn3c(c2CN1C(=O)Nc1ccc(F)c(Br)c1)C(=O)N(C)OC(CNCC(F)F)C3` (stereo in doubt) [Compound 184_D1, (4S*,9R)—N-(3-bromo-4-fluorophenyl)-4-(((2,2-difluoroethyl)amino)methyl)-2,9-dimethyl-1-oxo-1,4,5,8,9,11-hexahydropyrido[4′,3′:3,4]pyrazolo[5,1-d][1,2,5]oxadiazepine-10(2H)-carboxamide]: the EC50 under setting [1] was in the range of 1 to 100 nM.

For the molecule `C[C@@H]1Cc2nn3c(c2CN1C(=O)Nc1ccc(F)c(Br)c1)C(=O)N(C)OC(CNCC(F)F)C3` (stereo in doubt) [Compound 184_D2, (4R*,9R)—N-(3-bromo-4-fluorophenyl)-4-(((2,2-difluoroethyl)amino)methyl)-2,9-dimethyl-1-oxo-1,4,5,8,9,11-hexahydropyrido[4′,3′:3,4]pyrazolo[5,1-d][1,2,5]oxadiazepine-10(2H)-carboxamide], the EC50 under setting [2] lay within 1 to 100 nM. `Cc1cc(NC(=O)N2Cc3c(nn4c3C(=O)N(C)OC(CNCC(F)F)C4)C[C@H]2C)ccc1F` (stereo in doubt) [Compound 185_D1, (4S*,9R)-4-(((2,2-difluoroethyl)amino)methyl)-N-(4-fluoro-3-methylphenyl)-2,9-dimethyl-1-oxo-1,4,5,8,9,11-hexahydropyrido[4′,3′:3,4]pyrazolo[5,1-d][1,2,5]oxadiazepine-10(2H)-carboxamide]: the EC50 under setting [1] was 1 to 100 nM. Consider `Cc1cc(NC(=O)N2Cc3c(nn4c3C(=O)N(C)OC(CNCC(F)F)C4)C[C@H]2C)ccc1F` (stereo in doubt) [Compound 185_D2, (4R*,9R)-4-(((2,2-difluoroethyl)amino)methyl)-N-(4-fluoro-3-methylphenyl)-2,9-dimethyl-1-oxo-1,4,5,8,9,11-hexahydropyrido[4′,3′:3,4]pyrazolo[5,1-d][1,2,5]oxadiazepine-10(2H)-carboxamide], for which the EC50 under setting [2] lay within 1 to 100 nM. Take `CN1O[C@H](CNCC(F)F)Cn2nc3c(c2C1=O)CN(C(=O)Nc1ccc(F)c(C(F)(F)F)c1)CC3` (stereo in doubt) [Compound 194_E1, (S*)-4-4(2,2-difluoroethyl)amino)methyl)-N-(4-fluoro-3-(trifluoromethyl)phenyl)-2-methyl-1-oxo-1,4,5,8,9,11-hexahydropyrido[4′,3′:3,4]pyrazolo[5,1-d][1,2,5]oxadiazepine-10(2H)-carboxamide]: the concentration for a half-maximal effect (EC50) under setting [1] lay in the range of 1 to 100 nM.

As to `CN1OC(CO)Cn2nc3c(c2C1=O)CN(C(=O)Nc1cccc(Br)c1)CC3` (stereo not shown) [Compound 001, N-(3-bromophenyl)-4-(hydroxymethyl)-2-methyl-1-oxo-1,4,5,8,9,11-hexahydropyrido[4′,3′:3,4]pyrazolo[5,1-d][1,2,5]oxadiazepine-10(2H)-carboxamide], the EC50 under setting [1] was in the range of 1 to 100 nM. Still for that read-out and setting: the result for `Cc1cccc(NC(=O)N2CCc3nn4c(c3C2)C(=O)N(C)OC(CO)C4)c1` (stereo not shown) [Compound 002, 4-(hydroxymethyl)-2-methyl-1-oxo-N-(m-tolyl)-1,4,5,8,9,11-hexahydropyrido[4′,3′:3,4]pyrazolo[5,1-d][1,2,5]oxadiazepine-10(2H)-carboxamide] reads 1 to 100 nM; that for `CN1OC(CO)Cn2nc3c(c2C1=O)CN(C(=O)Nc1ccnc(Cl)c1F)CC3` (stereo not shown) [Compound 003, N-(2-chloro-3-fluoropyridin-4-yl)-4-(hydroxymethyl)-2-methyl-1-oxo-1,4,5,8,9,11-hexahydropyrido[4′,3′:3,4]pyrazolo[5,1-d][1,2,5]oxadiazepine-10(2H)-carboxamide], 100 to 500 nM. On to `CN1OC(CO)Cn2nc3c(c2C1=O)CN(C(=O)Nc1cccc(Br)c1F)CC3` (stereo not shown) [Compound 004, N-(3-bromo-2-fluorophenyl)-4-(hydroxymethyl)-2-methyl-1-oxo-1,4,5,8,9,11-hexahydropyrido[4′,3′:3,4]pyrazolo[5,1-d][1,2,5]oxadiazepine-10(2H)-carboxamide], for which the 50% effective concentration (EC50) under setting [1] is 1 to 100 nM.

For `CN1OC(CO)Cn2nc3c(c2C1=O)CN(C(=O)Nc1ccc(F)c(F)c1)CC3` (stereo not shown) [Compound 005, N-(3,4-difluorophenyl)-4-(hydroxymethyl)-2-methyl-1-oxo-1,4,5,8,9,11-hexahydropyrido[4′,3′:3,4]pyrazolo[5,1-d][1,2,5]oxadiazepine-10(2H)-carboxamide], the EC50 under setting [1] lay within 1 to 100 nM.

Turning to `CN1OC(CO)Cn2nc3c(c2C1=O)CN(C(=O)Nc1cc(F)c(F)c(F)c1)CC3` (stereo not shown) [Compound 006, 4-(hydroxymethyl)-2-methyl-1-oxo-N-(3,4,5-trifluorophenyl)-1,4,5,8,9,11-hexahydropyrido[4′,3′:3,4]pyrazolo[5,1-d][1,2,5]oxadiazepine-10(2H)-carboxamide], the EC50 under setting [1] lay in the range of 1 to 100 nM.
